We go through 6 compounds from patent publication US20090099169A1, “Benzofuran Compounds As EP1 Receptor Antagonists” (GLAXO GROUP LIMITED, priority 2006, published 2009).

This test deals with T1, human EP1 receptor (Homo sapiens, UniProt P34995).
T1 sequence (P34995 1-402): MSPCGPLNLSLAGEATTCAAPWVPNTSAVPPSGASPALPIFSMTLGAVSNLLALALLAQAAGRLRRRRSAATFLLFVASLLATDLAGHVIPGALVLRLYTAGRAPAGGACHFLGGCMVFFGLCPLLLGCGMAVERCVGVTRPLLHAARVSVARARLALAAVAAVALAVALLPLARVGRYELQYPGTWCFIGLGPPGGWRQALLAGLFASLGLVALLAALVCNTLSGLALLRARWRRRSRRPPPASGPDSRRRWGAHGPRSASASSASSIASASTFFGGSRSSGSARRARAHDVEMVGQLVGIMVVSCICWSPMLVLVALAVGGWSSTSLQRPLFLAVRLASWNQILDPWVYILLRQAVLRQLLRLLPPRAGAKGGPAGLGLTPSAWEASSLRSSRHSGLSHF
In words: Binding assay for the human prostanoid EP1 receptor (radioligand competition). Further details: expressed in transfected cells; host or cells: CHO-K1 (membranes). The settings on record: CHO-K1 membranes; [3H]-PGE2 for Examples 1-17, 19, 33, 34, 60 and 61, 3-{2-[5-Bromo-2-(2,4-difluorobenzyloxy)-phenyl]-5-methyl-pyrrol-1-yl}-6-[3H3-methoxy]methoxy-benzoic acid for the remaining; averages of a number of experiments; read-out: pIC50 value (binding assay for the human prostanoid EP1 receptor) (converted). In short, it runs like this: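 Membranes from CHO-K1 cells stably expressing human EP1, in pH 6 MES buffer with 10 mM MgCl2. Competition with [3H]-PGE2 (3 nM final) for 30 min at 30 °C, or alternatively with a tritiated benzoic-acid ligand (0.2 nM final) for 45 min at 37 °C; filtration and scintillation counting, IC50 by non-linear fitting.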
A general note: Loss of bound radioactivity is the signal in a displacement assay; it reports binding, not function.

SMILES strings stand for the structures. Where a name gives a salt, the structure may show the parent alone. A value given as a limit tells only on which side of the number the result lay.

With `Cc1cc(C(=O)O)nn1Cc1cc(Cl)cc2cc(C(C)C)oc12` [Example 3, 1-{[5-Chloro-2-(1-methylethyl)-1-benzofuran-7-yl]methyl}-5-methyl-1H-pyrazole-3-carboxylic Acid], the IC50 was at most 0.1 µM.
The result for `Cc1cc(C(=O)Nc2ccc(CN3CCC(O)CC3)cc2)nn1Cc1cc(Cl)cc2cc(C(C)C)oc12` [Example 16, 1-{[5-Chloro-2-(1-methylethyl)-1-benzofuran-7-yl]methyl}-N-{4-[(4-hydroxy-1-piperidinyl)methyl]phenyl}-5-methyl-1H-pyrazole-3-carboxamide hydrochloride] reads at most 0.1 µM; that for `CC(C)c1cc2cc(Cl)cc(Cc3ccc(C(=O)O)o3)c2o1` [Example 1, 5-{[5-Chloro-2-(1-methylethyl)-1-benzofuran-7-yl]methyl}-2-furancarboxylic Acid], at most 0.1 µM; that for `Cc1cc(C(=O)Nc2ccc(CN3CC[C@@H](O)C3)cc2)nn1Cc1cc(Cl)cc2cc(C(C)C)oc12` [Example 17, 1-{[5-Chloro-2-(1-methylethyl)-1-benzofuran-7-yl]methyl}-N-(4-{[(3R)-3-hydroxy-1-pyrrolidinyl]methyl}phenyl)-5-methyl-1H-pyrazole-3-carboxamide hydrochloride], at most 0.1 µM.
The result for `Cc1cc(C(=O)NN2CCOCC2)nn1Cc1cc(Cl)cc2cc(C3CCCCC3)oc12` [Example 28, 1-[(5-Chloro-2-cyclohexyl-1-benzofuran-7-yl)methyl]-5-methyl-N-4-morpholinyl-1H-pyrazole-3-carboxamide] reads at most 0.1 µM; that for `CCNCc1ccc(NC(=O)c2cc(C)n(Cc3cc(Cl)cc4cc(C(C)C)oc34)n2)cc1` [Example 15, 1-{[5-Chloro-2-(1-methylethyl)-1-benzofuran-7-yl]methyl}-N-{4-[(ethylamino)methyl]phenyl}-5-methyl-1H-pyrazole-3-carboxamide hydrochloride], at most 0.1 µM.
